Patent publication US20120142596A1, “AGENT FOR STIMULATING MOBILIZATION OF ENDOTHELIAL PROGENITOR CELLS” (priority 2009, published 2012)

B1: G-CSF: positive control, CJ Pharma Leukokine Inj. 150; known EPC mobilization factor (protein, UniProt P09919 31-207, looked up)
Granulocyte …: TPLGPASSLPQSFLLKCLEQVRKIQGDGAALQEKLVSECATYKLCHPEELVLLGHSLGIPWAPLSSCPSQALQLAGCLSQLHSGLFLYQGLLQALEGISPELGPTLDTLQLDVADFATTIWQQMEELGMAPALQPTQGAMPAFASAFQRRAGGVLVASHLQSFLEVSYRVLRHLAQP

What was measured:
EPCs [1] = test: Ability to form tubes in vitro on Matrigel of EPCs cultured from blood after SP; type: cell-based, New Zealand white rabbits; conditions: EPCs from peripheral blood after intravenous SP, 12 hours
Description: In order to examine the blood vessel-forming ability of the EPCs that have been isolated and cultured from the blood, the cells were cultured on Matrigel (BD). For this purpose, 200 μl of Matrigel was added to each well of a 96-well plate and incubated at 37° C. for 30 minutes. The cells were added to each well containing Matrigel at a density of 2×10^4 and cultured for 12 hours. When mesenchymal stem cells (MSCs) were cultured in the same manner as described above, colonies were formed as shown in FIG. 4B.

[2] = test system: inflammatory cells (neutrophils, eosinophils and monocytes); test: Complete blood cell count of peripheral blood after intra-bone marrow administration; type: in vivo, New Zealand white rabbits; conditions: rabbit, intra-bone marrow administration, 1, 2 and 3 days
[3] = test system: endothelial progenitor cells; test: Comparison of EPC colony formation in peripheral blood after intravenous administration of SP and G-CSF; type: in vivo, New Zealand white rabbits; conditions: rabbit
Description: (§1) According to the same method described in Example 1-(1), 0.1 ml of SP was administered to one rabbit group (New Zealand white rabbits, male, 2.5 kg, n=3), and 0.1 ml of G-CSF (CJ Pharma, Leukokine inj. 150; 2.5 μg/kg) as a positive control was administered to another rabbit group (New Zealand white rabbits, male, 2.5 kg, n=3). 1, 2 and 3 days after the administration, 5-15 ml of peripheral blood was isolated from each animal group. The isolated blood was two-fold diluted in PBS and carefully placed on Ficoll contained in a tube (Ficoll: peripheral blood=1:1 v/v). Then, the cell dilution was centrifuged at 2200 rpm for 25 minutes. The uppermost plasma layer was removed, and only the mononuclear cell layer was separated from the tube and transferred into a new tube. 30 ml of PBS was added to the obtained mononuclear cell layer and centrifuged at 1500 rpm for 5 minutes (washing step). The cells were suspended in EGM-2 (endothelial growth medium-2, Lonza), and the suspended cells were seeded on a 100-mm dish (Falcon) coated with fibronectin and were cultured in EGM-2 (endothelial growth medium-2, Lonza) for 2 weeks (5% CO2 and 37° C.). After the culture, the produced colonies were stained with toluidine blue and counted.

EPCs [4] = test: Immunohistochemical staining of cells cultured from peripheral blood with EPC markers CD34 and UEA; type: cell-based, New Zealand white rabbits; conditions: cells cultured from peripheral blood after intravenous SP, fluorescence microscopy
Description: In order to examine the presence of EPCs in peripheral blood using the EPC markers CD34 and UEA, EPCs (2×10^4 cells/well) that have been isolated and cultured from the above blood were incubated on cover slips for CD34 test and UEA test, respectively. After incubation in a 5% CO2 incubator at 37° C. for 24 hours, the cells were washed with PBS. Then, the cells were fixed with 3.7% paraformaldehyde and washed again with PBS.
The washed cells were blocked with 20% goat serum and treated with anti-CD 34 antibody at room temperature for 1 hour. Then, the cells were washed again with PBS and treated with FITC-conjugated anti-mouse IgG at room temperature for 1 hour. To remove excess of antibodies, the cells were washed with PBS, counterstained with DAPI, and then mounted.
The washed cells were blocked with 20% goat serum and treated with UEA-biotin at room temperature for 1 hour. Then, the cells were washed again with PBS and treated with streptavidin-FITC at room temperature for 1 hour. The cells were washed with PBS, counterstained with DAPI, and then mounted.
For negative control in immune fluorescence staining, cultured cells were treated with only secondary antibody, and the expression thereof was observed (FIG. 2C).

[5] = test system: endothelial progenitor cells; test: EPC mobilization to peripheral blood after intravenous administration (EPC colony count); type: in vivo, New Zealand white rabbits; conditions: rabbit, 5 nmole/kg i.v. twice (0 and 24 h), blood 3 days after first injection, 2 weeks culture, vs PBS control
Description: Ketamine hydrochloride (50 mg/ml Yuhan, Korea) and Rompun (xylazine hydrochloride, 23.32 mg/ml Bayer Korea) were mixed at a ratio of 2:1, and then 900 μl of the mixture (600 μl of ketamine hydrochloride and 300 μl of Rompun) was injected intramuscularly into New Zealand white rabbits (male, 2.5 kg, n=3). 10 minutes after the intramuscular injection, the same anesthetic (200 μl of ketamine hydrochloride and 100 μl of Rompun) was injected intravenously into the ear vein of each rabbit to completely anesthetize the rabbits. Then, 5 nmole/kg of SP was dissolved in physiological saline solution, and 1 ml of the solution was administered slowly into the ear vein of one rabbit group. As a control, 1 ml of 1×PBS was administered into the ear vein of another rabbit group. 24 hours after the administration, the same amount of each of SP and 1×PBS was injected once more.
3 days after the first injection, peripheral blood was collected from the ear blood vessels of the rabbits, and 10 ml of the collected blood was two-fold diluted in PBS, and then carefully placed on Ficoll contained in a tube (Ficoll: peripheral blood=1:1 v/v). Next, the blood dilution was centrifuged at 2200 rpm for 25 minutes. As a result, a red blood cell (RBC) layer, a ficoll layer, a mononuclear cell layer and a plasma layer, from bottom to top, were formed. […]

[6] = test system: endothelial progenitor cells; test: EPC CFU in bone marrow aspirate after intra-bone marrow administration; type: in vivo, New Zealand white rabbits; conditions: rabbit, intra-bone marrow injection, bone marrow aspirate 24 hours after injection, 1 week culture; for increase in amount of mobilized EPCs (CFU) compared to negative control group: SP 4 nmole/kg, G-CSF 2.5 μg/kg
Description: Ketamine hydrochloride (50 mg/ml Yuhan, Korea) and Rompun (xylazine hydrochloride, 23.32 mg/ml Bayer Korea) were mixed at a ratio of 2:1, and then 900 μl of the mixture (600 μl of ketamine hydrochloride and 300 μl of Rompun) was injected intramuscularly into New Zealand white rabbits (male, 2.5 kg, n=4). 5 minutes after the intramuscular injection, the same anesthetic (200 μl of ketamine hydrochloride and 100 μl of Rompun) was injected intravenously into the ear of each rabbit to completely anesthetize the rabbits.
SP (Sigma, 4 nmole/kg in saline) was injected into the right iliac crest of one rabbit group at an injection volume of 0.1 ml using a 18G spinal needle.
As a negative control, 1×PBS was injected into the left iliac crest of another rabbit group at an injection volume of 0.1 ml using a 18G spinal needle. As a positive control, G-CSF (CJ Pharma Leukokine Inj. 150; 2.5 μg/kg) was injected into the right iliac crest at an injection volume of 0.1 ml using a 18G spinal needle.
24 hours after the injection, 4 ml of a bone marrow aspirate was isolated from the bone marrow, two-fold diluted in PBS, and then carefully placed on Ficoll (GE Health care) contained in a tube (Ficoll: bone marrow aspirate=1:1 v/v). Then, the cell dilution was centrifuged at 2200 rpm for 25 minutes. As a result, a red blood cell layer, a ficoll layer, a mononuclear cell layer and a plasma layer, from bottom to top, were formed. After removing the plasma layer, only the mononuclear cell layer was separated and transferred into a new tube. 30 ml of PBS was added to the obtained mononuclear cell layer and centrifuged again (washing step).
The isolated cells were seeded on a 100-mm dish (Falcon) coated with fibronectin and were cultured in EGM-2 (Endothelial growth medium-2, Lonza) for 1 week (5% CO2 and 37° C.). After the culture, the CFU of the cells was measured and compared with those of the group injected with PBS and the group injected with the positive control G-CSF.

[7] = test system: endothelial progenitor cells; test: Comparison of EPC colony formation in peripheral blood after intra-bone marrow administration of SP and G-CSF; type: in vivo, New Zealand white rabbits; conditions: rabbit, intra-bone marrow administration, 1, 2 and 3 days, compared to G-CSF
Description: as §1, with “2-(2),” for “1-(1),”

[8] = test system: inflammatory cells (neutrophils and monocytes); test: Complete blood cell count of peripheral blood after intravenous administration; type: in vivo, New Zealand white rabbits; conditions: rabbit, intravenous administration, 1, 2 and 3 days, vs PBS control
Description: 1 ml of each of the peripheral bloods obtained 1, 2 and 3 days after intravenous administration of SP and G-CSF was placed in an EDTA-containing vial and mixed well to prevent clotting. In the experiment for isolating EPCs from blood cells, the complete blood cell counting of each blood was performed by Royal ARC (Korea) under the same conditions for each blood.

Row | Molecule | ability to form tubes in vitro (EPCs [1]) | inflammatory cells (neutrophils, eosinophils and monocytes) in peripheral blood [2] | amount of EPCs in peripheral blood over 1, 2 and 3 days ([3]; days 1-3) | presence of EPCs in peripheral blood by EPC markers CD34 and UEA (EPCs [4]) | amount of EPCs in peripheral blood (colonies) [5] | increase in amount of mobilized EPCs (CFU) compared to group administered with positive control G-CSF [6] | increase in amount of mobilized EPCs (CFU) compared to negative control group [6] | effect of stimulating EPC mobilization (EPC colonies in peripheral blood) [7] | EPCs in peripheral blood after the second day ([3]; after the second day) | EPCs in peripheral blood at the first day ([3]; day 1) | inflammatory cells (neutrophils and monocytes) in peripheral blood [8]
1 | Substance-P [SP] | had the ability to form blood vessels | without causing side effects such as inflammation | continuously increased | contained a large amount of EPCs | significantly increased | about 3 fold | 10-12 fold | excellent effect of stimulating EPC mobilization compared to G-CSF | – | – | –
2 | B1 | – | significantly increased | – | – | – | – | about 4 fold | – | no EPCs were found | temporarily increased | significantly increased
